{"source": "paper PMC4876051", "about": "(Clinical pharmacokinetics, 2016)", "key": {"[1]": {"settings": "cited from earlier work"}, "plasma glucose": {"test_system": "plasma glucose", "test": "Oral glucose tolerance test", "parameters": "AUCglu,0.5, GMR (90%CI), metformin vs baseline / AUCglu,3, GMR (90%CI), metformin vs baseline: unit not given beside the values"}, "clinical [2]": {"test": "clinical", "settings": "human"}, "MATE1 [3]": {"target": "T1, MATE1 (Homo sapiens, UniProt Q96FL8)", "T1 sequence (Q96FL8 whole entry)": "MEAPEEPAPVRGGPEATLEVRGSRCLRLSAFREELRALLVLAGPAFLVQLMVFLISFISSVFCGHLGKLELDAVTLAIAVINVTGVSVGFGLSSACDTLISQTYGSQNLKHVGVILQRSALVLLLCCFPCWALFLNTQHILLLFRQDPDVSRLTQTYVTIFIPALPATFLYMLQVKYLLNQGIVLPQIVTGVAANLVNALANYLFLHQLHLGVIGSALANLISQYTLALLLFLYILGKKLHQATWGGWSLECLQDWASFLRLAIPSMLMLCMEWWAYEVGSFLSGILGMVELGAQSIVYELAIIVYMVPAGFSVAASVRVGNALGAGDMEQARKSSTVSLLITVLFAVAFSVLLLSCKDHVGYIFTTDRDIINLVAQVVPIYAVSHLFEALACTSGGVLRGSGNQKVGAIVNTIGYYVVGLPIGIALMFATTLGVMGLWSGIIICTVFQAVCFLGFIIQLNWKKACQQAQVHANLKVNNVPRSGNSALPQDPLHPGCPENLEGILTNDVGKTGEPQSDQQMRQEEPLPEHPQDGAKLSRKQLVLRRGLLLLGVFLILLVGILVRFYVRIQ", "test": "cell-based"}, "MATE2 [4]": {"target": "T2, MATE2 (Homo sapiens, UniProt Q86VL8)", "T2 sequence (Q86VL8 whole entry)": "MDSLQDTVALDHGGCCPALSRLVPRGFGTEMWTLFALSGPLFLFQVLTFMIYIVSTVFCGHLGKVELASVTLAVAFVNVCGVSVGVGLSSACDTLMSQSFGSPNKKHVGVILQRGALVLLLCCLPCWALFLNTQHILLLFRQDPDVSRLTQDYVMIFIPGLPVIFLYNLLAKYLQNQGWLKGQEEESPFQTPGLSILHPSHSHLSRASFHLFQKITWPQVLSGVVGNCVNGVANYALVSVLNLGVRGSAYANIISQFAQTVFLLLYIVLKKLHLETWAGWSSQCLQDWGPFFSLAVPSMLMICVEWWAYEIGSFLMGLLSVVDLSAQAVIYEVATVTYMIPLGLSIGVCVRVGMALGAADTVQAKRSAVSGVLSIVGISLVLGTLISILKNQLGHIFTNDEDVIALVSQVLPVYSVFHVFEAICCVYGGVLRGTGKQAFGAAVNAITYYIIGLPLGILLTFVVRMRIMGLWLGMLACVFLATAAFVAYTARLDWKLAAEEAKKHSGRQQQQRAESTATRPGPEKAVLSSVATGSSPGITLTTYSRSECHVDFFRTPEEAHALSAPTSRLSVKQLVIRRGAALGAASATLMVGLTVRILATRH", "test": "cell-based"}, "[5]": {"settings": "cited from earlier work", "remark": "listed apart in the source"}, "MATE2 [6]": {"target": "T2, MATE2", "settings": "overexpressing cell line; Supplemental Fig. 4"}, "[7]": {"test": "Tolerability in the clinical study", "settings": "twelve healthy volunteers; famotidine Cmax,u about 1.0 μM"}, "clinical [8]": {"test": "clinical", "settings": "human, plasma and urine, oral, 200 mg"}, "MATE1 [9]": {"target": "T1, MATE1", "settings": "MATE1 vs OCT2"}, "[10]": {"target": "plasma membrane monoamine transporter (PMAT, SLC29A4) (Homo sapiens, UniProt Q7RTT9)", "sequence (Q7RTT9 whole entry)": "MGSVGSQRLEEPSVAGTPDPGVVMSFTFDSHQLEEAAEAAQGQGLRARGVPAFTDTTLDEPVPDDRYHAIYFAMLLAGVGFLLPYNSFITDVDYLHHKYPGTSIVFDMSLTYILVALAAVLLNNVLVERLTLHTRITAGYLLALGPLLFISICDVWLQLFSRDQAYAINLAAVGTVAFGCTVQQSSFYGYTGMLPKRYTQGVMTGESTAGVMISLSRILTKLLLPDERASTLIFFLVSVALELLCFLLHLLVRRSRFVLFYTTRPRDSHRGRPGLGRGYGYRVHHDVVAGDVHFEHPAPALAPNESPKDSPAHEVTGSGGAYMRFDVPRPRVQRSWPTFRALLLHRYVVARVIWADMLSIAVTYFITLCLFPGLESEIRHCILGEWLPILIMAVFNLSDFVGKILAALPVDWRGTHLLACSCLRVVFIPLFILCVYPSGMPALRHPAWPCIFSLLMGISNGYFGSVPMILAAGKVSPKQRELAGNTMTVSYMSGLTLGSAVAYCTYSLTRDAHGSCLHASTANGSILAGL", "settings": "Supplemental Fig. 7"}, "[11]": {"settings": "for Maximal concentration of unbound famotidine in plasma ([I], Cmax,u): healthy volunteers n=12, oral famotidine 160 to 200 mg doses"}, "[12]": {"settings": "cited from earlier work", "remark": "listed apart in the source"}, "OCT1 [13]": {"target": "T3, OCT1 (Homo sapiens, UniProt O15245)", "T3 sequence (O15245 whole entry)": "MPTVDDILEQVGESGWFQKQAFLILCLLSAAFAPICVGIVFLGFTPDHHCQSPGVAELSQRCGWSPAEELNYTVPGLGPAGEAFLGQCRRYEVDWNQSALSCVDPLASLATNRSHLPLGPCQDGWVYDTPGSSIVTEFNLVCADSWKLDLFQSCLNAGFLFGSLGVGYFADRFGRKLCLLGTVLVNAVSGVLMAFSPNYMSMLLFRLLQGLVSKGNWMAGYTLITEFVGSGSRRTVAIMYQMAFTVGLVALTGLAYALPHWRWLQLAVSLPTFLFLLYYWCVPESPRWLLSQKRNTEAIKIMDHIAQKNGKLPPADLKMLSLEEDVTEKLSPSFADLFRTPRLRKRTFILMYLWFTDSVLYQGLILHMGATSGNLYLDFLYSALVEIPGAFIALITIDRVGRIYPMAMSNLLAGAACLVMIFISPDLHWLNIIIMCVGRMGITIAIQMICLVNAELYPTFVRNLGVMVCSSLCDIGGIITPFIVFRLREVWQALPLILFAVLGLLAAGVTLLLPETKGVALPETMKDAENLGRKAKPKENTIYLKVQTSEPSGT", "test": "cell-based"}, "OCT1 [14]": {"target": "T3, OCT1", "settings": "overexpressing cell line; Supplemental Fig. 4"}, "OCT2 [15]": {"target": "T4, OCT2 (Homo sapiens, UniProt O15244)", "T4 sequence (O15244 whole entry)": "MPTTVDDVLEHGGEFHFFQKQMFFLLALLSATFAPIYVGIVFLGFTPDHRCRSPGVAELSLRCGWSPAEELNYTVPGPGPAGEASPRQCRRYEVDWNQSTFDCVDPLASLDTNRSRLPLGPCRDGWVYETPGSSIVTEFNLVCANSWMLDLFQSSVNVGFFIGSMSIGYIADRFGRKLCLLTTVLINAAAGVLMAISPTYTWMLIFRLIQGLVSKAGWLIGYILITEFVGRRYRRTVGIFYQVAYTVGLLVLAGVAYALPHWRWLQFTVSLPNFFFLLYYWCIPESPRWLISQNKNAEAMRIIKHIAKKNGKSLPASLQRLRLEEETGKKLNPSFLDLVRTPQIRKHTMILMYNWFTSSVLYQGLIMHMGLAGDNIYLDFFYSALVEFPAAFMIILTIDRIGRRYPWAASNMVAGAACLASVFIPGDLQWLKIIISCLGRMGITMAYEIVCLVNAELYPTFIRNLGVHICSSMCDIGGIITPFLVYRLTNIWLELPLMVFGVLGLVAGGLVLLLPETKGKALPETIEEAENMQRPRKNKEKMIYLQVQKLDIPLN", "test": "cell-based"}, "OCT2 [16]": {"target": "T4, OCT2", "settings": "overexpressing cell line; Supplemental Fig. 4"}, "creatinine plasma levels": {"test_system": "creatinine plasma levels", "settings": "with famotidine"}, "MATE1 [17]": {"target": "T1, MATE1", "settings": "overexpressing cell line; Supplemental Fig. 4"}, "[18]": {"test_system": "creatinine (an endogenous substrate of MATE1)", "settings": "12h after famotidine (200 mg) alone vs pre-famotidine"}, "[19]": {"settings": "glucose AUC 0 to 0.5h after 75 g glucose, n=12"}, "[20]": {"settings": "glucose AUC 0 to 3h after 75 g glucose, n=12"}, "[21]": {"settings": "metformin vs baseline (no drug)"}, "[22]": {"settings": "population PK model, twelve healthy volunteers"}}, "note": "Read-outs that look alike come from different tables or passages of the source.", "data": [{"smiles": "CN(C)C(=N)N=C(N)N", "note": "[Metformin, metformin]", "values": [{"measurement": "Ionized in blood and in urine at physiologic pH", "setting": "[1]", "value": "> 99", "unit": "%"}, {"measurement": "AUCglu,0.5, mean ± SEM", "setting": "plasma glucose; [19]", "value": "55 ± 1.5", "unit": "mg·h/dL"}, {"measurement": "AUCglu,0.5, median", "setting": "plasma glucose; [19]", "value": 55, "unit": "mg·h/dL"}, {"measurement": "AUCglu,3, mean ± SEM", "setting": "plasma glucose; [20]", "value": "356 ± 14", "unit": "mg·h/dL"}, {"measurement": "AUCglu,3, median", "setting": "plasma glucose; [20]", "value": 343, "unit": "mg·h/dL"}, {"measurement": "AUCglu,0.5, GMR (90%CI), metformin vs baseline", "setting": "plasma glucose; [21]", "value": "0.94 (0.90–0.98)"}, {"measurement": "AUCglu,3, GMR (90%CI), metformin vs baseline", "setting": "plasma glucose; [21]", "value": "0.99 (0.94–1.04)"}, {"measurement": "AUCglu,0.5, GMR (90%CI), metformin vs baseline", "setting": "plasma glucose; metformin vs baseline (no drug), listed as metformin", "value": "0.94 [0.90–0.98]"}, {"measurement": "CL renal", "setting": "clinical [2]; plasma and urine, oral", "value": "767 ± 70", "unit": "mL/min"}, {"measurement": "AUC(0-inf)", "setting": "clinical [2]; plasma, oral", "value": 14600, "unit": "ng·h/mL"}, {"measurement": "Tmax", "setting": "clinical [2]; plasma, po, 1850 mg", "value": "2 ± 0.24", "unit": "h"}]}, {"smiles": "NC(N)=Nc1nc(CSCCC(N)=NS(N)(=O)=O)cs1", "note": "[Famotidine, famotidine]", "values": [{"measurement": "IC50", "setting": "MATE1 [3]", "value": 0.25, "unit": "µM"}, {"measurement": "IC50", "setting": "MATE2 [4]", "value": 2.5, "unit": "µM"}, {"measurement": "Bound to plasma proteins", "setting": "[5]", "value": "approximately 20%"}, {"measurement": "Substrate of MATE2", "setting": "MATE2 [6]", "value": "unequivocal substrate"}, {"measurement": "Tolerability during co-administration with metformin", "setting": "[7]", "value": "well tolerated"}, {"measurement": "CL renal", "setting": "clinical [8]", "value": "290 ± 32", "unit": "mL/min"}, {"measurement": "Selectivity of inhibition of metformin transport for MATE1 over OCT2", "setting": "MATE1 [9]", "value": "over 200 fold"}, {"measurement": "Inhibition of metformin transport by PMAT", "setting": "[10]", "value": "potent inhibitor"}, {"measurement": "Maximal concentration of unbound famotidine in plasma ([I], Cmax,u)", "setting": "[11]", "value": 1000, "unit": "nM"}, {"measurement": "Maximal concentration of unbound famotidine in plasma ([I], Cmax,u)", "setting": "[11]; listed as famotidine", "value": "1000 ± 64", "unit": "nM"}, {"measurement": "BSV-CL (between subject variability)", "setting": "[11]; population PK model, (R.S.E)", "value": "6.4% (25%)"}, {"measurement": "BSV-F (between subject variability)", "setting": "[11]; population PK model, (R.S.E)", "value": "26% (53%)"}, {"measurement": "BSV-Lagtime (between subject variability)", "setting": "[11]; population PK model, (R.S.E)", "value": "77% (99%)"}, {"measurement": "CL/F, population estimate (R.S.E)", "setting": "[11]; [22]", "value": "116 (7.2%) L/h"}, {"measurement": "Lag time, population estimate (R.S.E)", "setting": "[11]; [22]", "value": "0.27 (32%) h"}, {"measurement": "V/F, population estimate (R.S.E)", "setting": "[11]; [22]", "value": "715 (6.0%) L"}, {"measurement": "ka, population estimate (R.S.E)", "setting": "[11]; [22]", "value": "1.14 (11%) h^−1"}, {"measurement": "Eliminated by metabolic route", "setting": "[12]", "value": "30–35%"}, {"measurement": "Eliminated by renal route", "setting": "[12]", "value": "65–70%"}, {"measurement": "Effect of famotidine alone on glucose AUC", "setting": "plasma glucose; OGTT, data not shown", "value": "no significant effect"}, {"measurement": "IC50", "setting": "OCT1 [13]", "value": 19, "unit": "µM"}, {"measurement": "Substrate of OCT1", "setting": "OCT1 [14]", "value": "unequivocal substrate"}, {"measurement": "IC50", "setting": "OCT2 [15]", "value": 66, "unit": "µM"}, {"measurement": "Substrate of OCT2", "setting": "OCT2 [16]", "value": "unequivocal substrate"}, {"measurement": "BSV-Baseline, creatinine model (R.S.E.)", "setting": "creatinine plasma levels", "value": "18 (19%)"}, {"measurement": "BSV-Phase Shift, creatinine model (R.S.E.)", "setting": "creatinine plasma levels", "value": "2.7 (89%)"}, {"measurement": "Creatinine plasma Amplitude 1, typical value (R.S.E.)", "setting": "creatinine plasma levels; diurnal rhythm model", "value": "1.15 (49%) mg/L"}, {"measurement": "Creatinine plasma Phase Shift 1, typical value (R.S.E.)", "setting": "creatinine plasma levels; diurnal rhythm model", "value": "2.37 (2.6%) mg/L"}, {"measurement": "Creatinine plasma Baseline, typical value (R.S.E.)", "setting": "creatinine plasma levels; twelve healthy volunteers", "value": "8.07 (5.5%) mg/L"}, {"measurement": "Substrate of MATE1", "setting": "MATE1 [17]", "value": "unequivocal substrate"}, {"measurement": "Creatinine concentrations in plasma", "setting": "[18]", "value": "significantly higher"}]}]}
